Where two headings read alike, the source gives them in different places.
Legend:
Laodelphax striatella = assay: Insecticidal test on Laodelphax striatella (rice seedling dip); format: in vivo; conditions: Laodelphax striatellus, 192 h, read-out: insecticidal effect (corrected mortality rate)
Excerpt: Insecticidal Test on Laodelphax striatella
The oxime group-containing condensed heterocyclic compounds represented by the general formula (1) of the present invention or salts thereof were separately dispersed in water and diluted to 500 ppm, and rice plant seedlings (variety: Nihonbare) were dipped in the agrochemical dispersions for 30 seconds. After air-dried, each seedling was put into a separate glass test tube and inoculated with ten 3rd-instar larvae of Laodelphax striatella, and then the glass test tubes were capped with cotton plugs. At 8 days after the inoculation, the numbers of surviving larvae and dead larvae were counted, the corrected mortality rate was calculated according to the formula shown below, and the insecticidal effect was evaluated according to the criteria of Test Example 1. Corrected mortality rate (%)=100×(Survival rate in a non-treatment plot−Survival rate in a treatment plot)/Survival rate in a non-treatment plot [Math. 2]

Plutella xylostella = assay: Insecticidal test on Plutella xylostella (dip of Chinese cabbage seedlings with laid eggs); format: in vivo; conditions: 144 h
Excerpt: Insecticidal Test on Plutella xylostella
Adults of Plutella xylostella were released onto Chinese cabbage seedlings and allowed to lay eggs thereon. At 2 days after the release of the adults, the Chinese cabbage seedlings with laid eggs were dipped for about 30 seconds in agrochemical dispersions diluted to 500 ppm, each of which contained a different kind of oxime group-containing condensed heterocyclic compound represented by the general formula (1) of the present invention as an active ingredient. After air-dried, the seedlings were kept in a thermostatic chamber at 25° C. At 6 days after the dip treatment, the number of hatched larvae per plot was counted, the mortality rate was calculated according to the formula shown below, and the insecticidal effect was evaluated according to the criteria of Test Example 1. This test was conducted in triplicate using 10 adults of Plutella xylostella per plot. Corrected mortality rate (%)=100×(Number of hatched larvae in a non-treatment plot−Number of hatched larvae in a treatment plot)/Number of hatched larvae in a non-treatment plot [Math. 3]

[1] = 500 ppm, rice seedlings (Nihonbare) dipped 30 seconds, ten 3rd-instar larvae, 8 days after inoculation, criteria of Test Example 1
[2] = 500 ppm, Chinese cabbage seedlings with laid eggs dipped about 30 seconds, 25° C., 6 days after dip treatment, criteria of Test Example 1, read-out: insecticidal effect (corrected mortality rate, hatched larvae)

`CCS(=O)(=O)c1cc(C=NO)cnc1-c1nc2cc(C(F)(F)F)cnc2n1C` [Compound 2-3] gave a mortality at 500 ppm (Laodelphax striatella; [1]) of 100% and a mortality at 500 ppm (Plutella xylostella; [2]) of 100%.

Work on `CCS(=O)(=O)c1cc(C=NOCC(F)(F)F)cnc1-c1nc2cc(C(F)(F)F)cnc2n1C` [Compound 2-33] yielded a mortality at 500 ppm (Laodelphax striatella; [1]) of 100% and a mortality at 500 ppm (Plutella xylostella; [2]) of 100%.

`CCS(=O)(=O)c1ccc(C=NO)nc1-c1nc2cc(C(F)(F)F)nnc2n1C` [Compound 3-1] showed a mortality at 500 ppm (Laodelphax striatella; in Oryza sativa) of 100% and a mortality at 500 ppm (Plutella xylostella; in Brassica rapa, read-out: insecticidal effect (corrected mortality rate, hatched larvae)) of 100%.

`CCS(=O)(=O)c1ccc(C=NOCC(F)(F)F)nc1-c1nc2cc(C(F)(F)F)nnc2n1C` [Compound 3-2] gave a mortality at 500 ppm (Laodelphax striatella; [1]) of 100% and a mortality at 500 ppm (Plutella xylostella; [2]) of 100%.

With `CCS(=O)(=O)c1cc(/C=N/O)cnc1-c1nc2cc(SC(F)(F)F)ccc2o1` [Compound 4-11] the mortality at 500 ppm (Laodelphax striatella; [1]) was 100% and the mortality at 500 ppm (Plutella xylostella; [2]) was 100%.

With `CCS(=O)(=O)c1cc(/C=N/OCC(F)(F)F)cnc1-c1nc2cc(SC(F)(F)F)ccc2o1` [Compound 4-12] the mortality at 500 ppm (Laodelphax striatella; [1]) was 100% and the mortality at 500 ppm (Plutella xylostella; [2]) was 100%.
